Reference: patent US20230107642A1 (Erasca, Inc., priority 2020, published 2023)

Biological target: T1, K-Ras G12C (Homo sapiens, UniProt P01116, G12C)
T1 construct: This protein contained 188 amino acids in total, including an N-terminal 6-Histidine tag; made in house; host or cells: E. coli BL21
Assay: CAF assay (% CAF; method in Example 7, not in this part)
Type: binding
Details: 10 uM compound, 1 h incubation

Row | Compound | % CAF @ 10 uM, 1h [%]
1 | C=CC(=O)N1CCN(c2nc(=O)n3c4c(c(-c5ccc(F)cc5)c(C(F)(F)F)cc24)SC[C@H](OC)C3)[C@@H](C)C1 [Example 527, (R)-8-((S)-4-acryloyl-2-methylpiperazin-1-yl)-11-(4-fluorophenyl)-3-methoxy-10-(trifluoromethyl)-3,4-dihydro-2H,6H-[1,4]thiazepino[2,3,4-ij]quinazolin-6-one] | 97
2 | C=CC(=O)N1CCN(c2nc(=O)n3c4c(c(-c5ccc(F)cc5)c(Cl)cc24)SC[C@H](OC)C3)[C@@H](C)C1 [Example 528, (R)-8-((S)-4-acryloyl-2-methylpiperazin-1-yl)-10-chloro-11-(4-fluorophenyl)-3-methoxy-3,4-dihydro-2H,6H-[1,4]thiazepino[2,3,4-ij]quinazolin-6-one] | 98
3 | C=CC(=O)N1CCN(c2nc(=O)n3c4c(c(-c5cc(Cl)c(F)cc5F)c(Cl)cc24)SC[C@@H](OC)C3)[C@@H](C)C1 [Example 529, (3S)-8-((S)-4-acryloyl-2-methylpiperazin-1-yl)-10-chloro-11-(5-chloro-2,4-difluorophenyl)-3-methoxy-3,4-dihydro-2H,6H-[1,4]thiazepino[2,3,4-ij]quinazolin-6-one] | 95
4 | C=CC(=O)N1[C@H](C)CN(c2nc(=O)n3c4c(c(-c5cc(Cl)c(F)cc5F)c(Cl)cc24)SC[C@@H](OC)C3)C[C@@H]1C [Example 530, (3S)-8-((3S,5R)-4-acryloyl-3,5-dimethylpiperazin-1-yl)-10-chloro-11-(5-chloro-2,4-difluorophenyl)-3-methoxy-3,4-dihydro-2H,6H-[1,4]thiazepino[2,3,4-ij]quinazolin-6-one] | 92
5 | C=CC(=O)N1[C@H](C)CN(c2nc(=O)n3c4c(c(-c5ccc(F)cc5F)c(C(F)(F)F)cc24)SCC2(COC2)C3)C[C@@H]1C [Example 531, 8′-((3S,5R)-4-Acryloyl-3,5-dimethylpiperazin-1-yl)-11′-(2,4-difluorophenyl)-10′-(trifluoromethyl)-2′H,4′H,6′H-spiro[oxetane-3,3′-[1,4]thiazepino[2,3,4-ij]quinazolin]-6′-one] | 88.6
6 | C=CC(=O)N1CCN(c2nc(=O)n3c4c(c(-c5ccc(F)cc5)c(C(F)(F)F)cc24)SC[C@@H](OC)C3)[C@@H](C)C1 [Example 532, (S)-8-((S)-4-acryloyl-2-methylpiperazin-1-yl)-11-(4-fluorophenyl)-3-methoxy-10-(trifluoromethyl)-3,4-dihydro-2H,6H-[1,4]thiazepino[2,3,4-ij]quinazolin-6-one] | 97
7 | C=CC(=O)N1CCN(c2nc(=O)n3c4c(c(-c5cc(Cl)c(F)cc5F)c(C(F)(F)F)cc24)SC[C@H](OC)C3)[C@@H](C)C1 [Example 533, (3R)-8-((S)-4-acryloyl-2-methylpiperazin-1-yl)-11-(5-chloro-2,4-difluorophenyl)-3-methoxy-10-(trifluoromethyl)-3,4-dihydro-2H,6H-[1,4]thiazepino[2,3,4-ij]quinazolin-6-one] | 96
8 | C=CC(=O)N1CCN(c2nc(=O)n3c4c(c(-c5cc(Cl)c(F)cc5F)c(C(F)(F)F)cc24)SC[C@H](OC)C3)CC1 [Example 534, (3R)-8-(4-acryloylpiperazin-1-yl)-11-(5-chloro-2,4-difluorophenyl)-3-methoxy-10-(trifluoromethyl)-3,4-dihydro-2H,6H-[1,4]thiazepino[2,3,4-ij]quinazolin-6-one] | 97
9 | C=CC(=O)N1[C@H](C)CN(c2nc(=O)n3c4c(c(-c5cc(Cl)c(F)cc5F)c(C(F)(F)F)cc24)SC[C@H](OC)C3)C[C@@H]1C [Example 535, (3R)-8-((3S,5R)-4-acryloyl-3,5-dimethylpiperazin-1-yl)-11-(5-chloro-2,4-difluorophenyl)-3-methoxy-10-(trifluoromethyl)-3,4-dihydro-2H,6H-[1,4]thiazepino[2,3,4-ij]quinazolin-6-one] | 96
10 | C=CC(=O)N1CCN(c2nc(=O)n3c4c(c(-c5ccc(F)cc5)c(Cl)cc24)SC[C@@H](OC)C3)CC1 [Example 536, (S)-8-(4-acryloylpiperazin-1-yl)-10-chloro-11-(4-fluorophenyl)-3-methoxy-3,4-dihydro-2H,6H-[1,4]thiazepino[2,3,4-ij]quinazolin-6-one] | 97
11 | C=CC(=O)N1CCN(c2nc(=O)n3c4c(c(-c5ccc(F)cc5)c(Cl)cc24)SC[C@@H](OC)C3)[C@@H](C)C1 [Example 537, (S)-8-((S)-4-acryloyl-2-methylpiperazin-1-yl)-10-chloro-11-(4-fluorophenyl)-3-methoxy-3,4-dihydro-2H,6H-[1,4]thiazepino[2,3,4-ij]quinazolin-6-one] | 96
12 | C=CC(=O)N1CCN(c2nc(=O)n3c4c(c(-c5cc(Cl)c(F)cc5F)c(Cl)cc24)SC[C@H](OC)C3)CC1 [Example 538, (3R)-8-(4-acryloylpiperazin-1-yl)-10-chloro-11-(5-chloro-2,4-difluorophenyl)-3-methoxy-3,4-dihydro-2H,6H-[1,4]thiazepino[2,3,4-ij]quinazolin-6-one] | 97
13 | C=CC(=O)N1[C@H](C)CN(c2nc(=O)n3c4c(c(-c5cc(Cl)c(F)cc5F)c(C(F)(F)F)cc24)SC[C@@H](OC)C3)C[C@@H]1C [Example 539, (3S)-8-((3S,5R)-4-acryloyl-3,5-dimethylpiperazin-1-yl)-11-(5-chloro-2,4-difluorophenyl)-3-methoxy-10-(trifluoromethyl)-3,4-dihydro-2H,6H-[1,4]thiazepino[2,3,4-ij]quinazolin-6-one] | 96
14 | C=CC(=O)N1CCN(c2nc(=O)n3c4c(c(-c5ccc(F)cc5)c(Cl)cc24)SC[C@H](OC)C3)CC1 [Example 540, (R)-8-(4-acryloylpiperazin-1-yl)-10-chloro-11-(4-fluorophenyl)-3-methoxy-3,4-dihydro-2H,6H-[1,4]thiazepino[2,3,4-ij]quinazolin-6-one] | 98
15 | C=CC(=O)N1CCN(c2nc(=O)n3c4c(c(-c5cc(Cl)c(F)cc5F)c(Cl)cc24)SC[C@H](OC)C3)[C@@H](C)C1 [Example 541, (3R)-8-((S)-4-acryloyl-2-methylpiperazin-1-yl)-10-chloro-11-(5-chloro-2,4-difluorophenyl)-3-methoxy-3,4-dihydro-2H,6H-[1,4]thiazepino[2,3,4-ij]quinazolin-6-one] | 96
16 | C=CC(=O)N1[C@H](C)CN(c2nc(=O)n3c4c(c(-c5cc(Cl)c(F)cc5F)c(Cl)cc24)SC[C@H](OC)C3)C[C@@H]1C [Example 542, (3R)-8-((3S,5R)-4-acryloyl-3,5-dimethylpiperazin-1-yl)-10-chloro-11-(5-chloro-2,4-difluorophenyl)-3-methoxy-3,4-dihydro-2H,6H-[1,4]thiazepino[2,3,4-ij]quinazolin-6-one] | 96
17 | C=CC(=O)N1CCN(c2nc(=O)n3c4c(c(-c5cc(Cl)c(F)cc5F)c(Cl)cc24)SC[C@@H](OC)C3)CC1 [Example 543, (3S)-8-(4-acryloylpiperazin-1-yl)-10-chloro-11-(5-chloro-2,4-difluorophenyl)-3-methoxy-3,4-dihydro-2H,6H-[1,4]thiazepino[2,3,4-ij]quinazolin-6-one] | 97
18 | C=CC(=O)N1C[C@H](C)N(c2nc(=O)n3c4c(c(-c5ccc(F)cc5F)c(Cl)cc24)SC[C@@H]3CN2CCN(CC(F)F)CC2)C[C@H]1C [Example 550, (3S)-7-((2S,5R)-4-acryloyl-2,5-dimethylpiperazin-1-yl)-9-chloro-3-((4-(2,2-difluoroethyl)piperazin-1-yl)methyl)-10-(2,4-difluorophenyl)-2H-[1,4]thiazino[2,3,4-ij]quinazolin-5(3H)-one] | 91.6
19 | C=CC(=O)N1C[C@H](C)N(c2nc(=O)n3c4c(c(-c5ccc(F)cc5F)c(Cl)cc24)SC[C@@H]3CN2CCN(C3CC3)CC2)C[C@H]1C [Example 551, (3S)-7-((2S,5R)-4-acryloyl-2,5-dimethylpiperazin-1-yl)-9-chloro-3-((4-cyclopropylpiperazin-1-yl)methyl)-10-(2,4-difluorophenyl)-2H-[1,4]thiazino[2,3,4-ij]quinazolin-5(3H)-one] | 53.4
20 | C=CC(=O)N1C[C@H](C)N(c2nc(=O)n3c4c(c(-c5ccc(F)cc5)c(Cl)cc24)SC[C@@H]3COCCOC)C[C@H]1C [Example 558, (S)-7-((2S,5R)-4-acryloyl-2,5-dimethylpiperazin-1-yl)-9-chloro-10-(4-fluorophenyl)-3-((2-methoxyethoxy)methyl)-2H-[1,4]thiazino[2,3,4-ij]quinazolin-5(3H)-one] | 64.3
21 | C=CC(=O)N1[C@H](C)CN(c2nc(=O)n3c4c(c(-c5cc(Cl)c(F)cc5F)c(C(F)(F)F)cc24)SC[C@@H]3COC)C[C@@H]1C [Example 559, (3S)-7-((3S,5R)-4-acryloyl-3,5-dimethylpiperazin-1-yl)-10-(5-chloro-2,4-difluorophenyl)-3-(methoxymethyl)-9-(trifluoromethyl)-2H-[1,4]thiazino[2,3,4-ij]quinazolin-5(3H)-one] | 83.8
22 | C=CC(=O)N1[C@H](C)CN(c2nc(=O)n3c4c(c(-c5ccc(F)cc5F)c(C(F)(F)F)cc24)SC[C@@H]3CN2C[C@@H]3C[C@H]2CO3)C[C@@H]1C [Example 560, (3S)-3-(((1S,4S)-2-oxa-5-azabicyclo[2.2.1]heptan-5-yl)methyl)-7-((3S,5R)-4-acryloyl-3,5-dimethylpiperazin-1-yl)-10-(2,4-difluorophenyl)-9-(trifluoromethyl)-2,3-dihydro-5H-[1,4]thiazino[2,3,4-ij]quinazolin-5-one] | 95.6
23 | C=CC(=O)N1C[C@H](C)N(c2nc(=O)n3c4c(c(-c5ccc(F)cc5F)c(C(F)(F)F)cc24)SC[C@@H]3CN2CCN(CC#N)CC2)C[C@H]1C [Example 561, 2-(4-(((3S)-7-((2S,5R)-4-acryloyl-2,5-dimethylpiperazin-1-yl)-10-(2,4-difluorophenyl)-5-oxo-9-(trifluoromethyl)-3,5-dihydro-2H-[1,4]thiazino[2,3,4-ij]quinazolin-3-yl)methyl)piperazin-1-yl)acetonitrile] | 10.4
